From patent US20190336608A1, “CATIONIC CARRIERS FOR NUCLEIC ACID DELIVERY” (priority 2016, published 2019)

Columns and labels:
Sol8 muscle cells = experiment: Transfection efficiency of differentiated Sol8 muscle cells in vitro (GpLuc mRNA); type: cell-based, mouse; conditions: added to polymer PB83, low- and high-charge ratio complexes, 24 h post transfection
Source text: The purpose of this example is to assess the effect of lipid additives such as permanently cationic lipids or lipidoids on transfection/expression efficiency in Sol8 cells. […] Sol8 is a myogenic cell line isolated by Daubas et al. from primary cultures of soleus muscle taken from the leg of a normal C3H mouse. As a read-out for transfection efficiency, GpLuc mRNA (SEQ ID NO: 14) was used as the cargo. A successful transfection with the cargo leads to the translation of the luciferase protein and to a secretion of Gp luciferase protein into the cell culture supernatant. For further details on the GpLuc mRNA cargo see Example 1.
For a subset on hydrogel, a volume of 0.2 mL Sol8 cells (20.000 cells) were seeded in 96 well glass bottom plates (Softwell Hydrogel coated with collagen (elasticity E=12 kPa)) on day 1. For another subset without hydrogel, a volume of 0.2 mL with 10.000 Sol8 cells per well were seeded in a 96 well glass bottom plates.
After removing the medium from each well, 100 μL DMEM medium (with 2% horse serum) was added to each well. Afterwards, on day 2, Sol8 cells were transfected with 100 μL transfection mix of polymer-lipid(oid) complexes (in triplicates without serum) and respective controls (also in triplicates), and cells were incubated at 37° C. and 5% CO2 for 120 minutes (non-hydrogel subset) or respectively 90 minutes (hydrogel subset). After incubation, 150 μL medium was exchanged with 150 μL fresh DMEM medium supplemented with 10% fetal calf serum.
Twenty-four hours post transfection, i.e. on day 3, 10 μL of supernatant of each well was extracted and used for quantification of protein expression (measurement of GpLuc) via luminescence analysis as described above.

HepG2 cells = experiment: Transfection efficiency of HepG2 cells in vitro (GpLuc mRNA, luminescence of supernatant); type: cell-based, human; conditions: for effect on transfection efficiency (in words): added to polymer PB83, 24 h post transfection, compared to polymer alone
Experimental: This example describes the evaluation of the effect of different polymer-lipid(oid) formulations (as described under Example ▪1) on transfection efficiency on HepG2 cells (human liver carcinoma cell line). As a read-out for transfection efficiency, GpLuc mRNA (SEQ ID NO: 14) was used as a cargo. Successful transfection with the cargo leads to the translation of the luciferase protein and to a secretion of Gp luciferase protein into the cell culture supernatant.
A volume of 0.2 mL HepG2 cells (10.000 cells) were seeded in a 96 well tissue culture plate. After removing the medium from each well, 100 μL RPMI 1640 medium (with 1% Penicillin and 1% Streptomycin, 1% L-Glutamin) was added to each well. Afterwards, HepG2 cells were transfected with 100 μL transfection mix (in triplicates) of the above described polymer-lipid(oid) mRNA complexes and respective controls (in triplicates), and cells were incubated at 37° C. and 5% CO2 for 90 minutes. After incubation, 150 μL medium was exchanged with 150 μL fresh RPMI 1640 medium supplemented with 10% fetal calf serum. Twenty-four hours post transfection, 10 μL of supernatant of each well was extracted and used for further luminescence analysis (see below).
A volume of 10 μL supernatant was transferred to a 96 well plate for GpLuc measurement. Then, coelenterazine working solution (100 μM) was prepared (1 mL coelenterazine stock solution (4.72 mM in EtOH) in 49 mL phosphate buffered saline supplemented with 5 mM NaCl, pH 7.2). A volume of 100 μL coelenterazine working solution was used as a substrate for GpLuc and measured after 5 seconds in a commercially available microplate reader.

[1] = tested on: hemagglutinin (HA) protein of influenza A virus (A/Netherlands/602/2009 (H1N1)); experiment: Hemagglutination inhibition assay after intramuscular vaccination with HA-mRNA and 3-C12-OH (second Example 7); type: in vivo; conditions: Balb/c mice, 10 μg HA-mRNA R2564 with 3-C12-OH, i.m.; after prime and boost vaccination
[2] = tested on: hemagglutinin (HA) protein of influenza A virus (A/Netherlands/602/2009 (H1N1)); experiment: ELISA of influenza specific IgG1 and IgG2a antibodies in sera of vaccinated mice; type: in vivo; conditions: Balb/c mice, 10 μg HA-mRNA with 3-C12-OH i.m.; 21 days after prime and 14 days after boost
[3] = tested on: hemagglutinin (HA) protein of influenza A virus (A/Netherlands/602/2009 (H1N1)); type: in vivo; conditions: Balb/c mice, 10 μg HA-mRNA with 3-C12-OH i.m.; splenocytes 14 days after boost

| Structure (SMILES) | effect on transfection efficiency / expression level (in words) (Sol8 muscle cells) | effect on transfection efficiency (in words) (HepG2 cells) | increase in transfection efficiency compared to transfections with polymer alone (HepG2 cells; combination with polymer PB83, high-charge complexes N/P 2, N/P 4, N/P 6, 24 h post transfection) | antibody titers against the HA protein compared to HA-mRNA (R2564) alone [1] | functional antibody titers, IgG1 subtype, compared to mRNA without lipid [2] | functional antibody titers, IgG2a subtype, compared to mRNA without lipid [2] | IFNy production compared to non-lipid-formulated mRNA [3] |
| --- | --- | --- | --- | --- | --- | --- | --- |
| CCCCCCCCCCCCNCCN(CCNCCCCCCCCCCCC)CCNCCCCCCCCCCCC [3-C12] | profound increase | profound increase |  |  |  |  |  |
| CCCCCCCCCCC(O)C[N+](C)(C)CCN(CC[N+](C)(C)CC(O)CCCCCCCCCC)CC[N+](C)(C)CC(O)CCCCCCCCCC (centres unmarked) [3-C12-OH-cat] |  | profound increase |  |  |  |  |  |
| CCCCCCCC/C=C\CCCCCCCC(=O)OCC(C[N+](C)(C)C)OC(=O)CCCCCCC/C=C\CCCCCCCC (centres unmarked) [DOTAP, 1,2-dioleoyl-3-trimethylammonium-propane, reference compound] | effective |  | up to 3 log units |  |  |  |  |
| CCCCCCCCCCC(O)CNCCN(CCNCC(O)CCCCCCCCCC)CCNCC(O)CCCCCCCCCC (centres unmarked) [3-C12-OH] | profound increase | profound increase |  | significantly higher | significantly higher | significantly higher | significant increased |
